Values quoted from earlier work in US10941351B2, “Layer-separation method of spent caustic solution” (SK Innovation Co., Ltd., priority 2016, dated 2021).

Conditions: at 25° C.

**Q.** With CCCCCCCCO [n-Octanol, n-octanol] as the compound, how does the Water solubility read?
**A.** Its Water solubility is 0.46 g/L.
